Tests used:
[1] = system: primary rat cortical cultures; assay: Neutral red (NR) uptake cytotoxicity assay; assay type: cell-based; details: for Bottom (baseline, % control) / Top (maximal cell death, % control): fitted NR curve, primary rat cortical neurons, 24 h; for EC50: primary rat cortical cultures, 24 h of exposure, mean (95% CI)
Description: Female Wistar rats were obtained from Charles River Laboratories. The animals were allowed free access to rat chow and water, being maintained on a 12 h/12 h light/dark cycle, under controlled temperature (20 ± 2 °C) and humidity (40–60%). Primary cortical cultures were prepared as previously described. Briefly, for embryo collection, the pregnant female Wistar rats were anesthetized with isoflurane and subsequently administered ketamine and xylazine (200 + 100 μL, intraperitoneal). At the end of the dissection procedures, the female rat was euthanized with the administration of sodium pentobarbital ([…]). The embryos were used between embryonic day 16 (E16) and E19, considering the mating day as E0. The embryos were dissected from the uterus, and the heads were decapitated and placed in ice-cold 0.1 M PBS supplemented with 0.6% (w/v) glucose. The cortex dissection was performed under a Zeiss stereo microscope (Stemi DV4). Following trypsinization (0.05% trypsin/EDTA) and DNAse I treatment, the tissue pieces were mechanically dissociated, and the cells seeded in freshly prepared neurobasal medium (supplemented with 2% B-27, 100 U/mL of penicillin, 100 μg/mL of streptomycin, and 1% GlutaMAX^TM supplement) at a density of 150,000 cells/cm^2 in 96-well plates precoated, overnight, with 0.05 mg/mL PLL solution (prepared in 0.1 M borate buffer, pH 8.5). The cultures were maintained at 37 °C in a 5% CO2 air atmosphere. The medium was renewed at 4 days in vitro (DIV) by replacing half of the volume with fresh medium, and the cultures were used at 8 DIV.
The differentiated SH-SY5Y cells (25,000 cells/cm^2) and primary rat cortical cultures (150,000 cells/cm^2) were seeded onto 96-well plates as previously described.
Accordingly, 6 days after seeding (differentiated SH-SY5Y cells) or at 8 DIV (primary cultures), the cells were exposed, for 24 h (37 °C, 5% CO2), to different concentrations of the drugs (0–1000 µM). Thus, the tested concentrations ranged from 0 to 1000 µM for 2C-T-2 and 2C-T-4; 0 to 500 µM for 2C-T-7; 0 to 250 µM for 25T2-NBOMe, and 0 to 100 µM for 25T4-NBOMe and 25T7-NBOMe.
The NR uptake assay is based on the detection of viable cells through the incorporation of the NR dye by the cell’s lysosomes. In brief, after 24 h of exposure to the tested drugs, the differentiated SH-SY5Y cells and primary rat cortical cultures were incubated with NR (50 µg/mL in complete medium) for 90 or 210 min, respectively, at 37 °C, in a 5% CO2-95% air atmosphere. To extract the absorbed dye, an acidified ethanol solution was used, and the absorbance was then measured at 540 nm in a multi-well plate reader (PowerWaveX, BioTek Instruments, Winooski, VT, USA). The cytotoxicity was estimated by the percentage of NR uptake relative to the control cells, and a minimum of 4 independent experiments were conducted in triplicate.

serotonergic B65 cells = system: serotonergic B65 cells; set-up: method as in doi:10.1007/s11419-020-00527-w; details: 50 μM, 3 h exposure; cited from earlier work
[2] = system: differentiated SH-SY5Y cells; assay: Total glutathione (tGSH) levels, DTNB-GSH recycling assay; assay type: cell-based, human; details: control 100.0%
Text: Glutathione has a critical role in cellular physiology, playing multiple essential roles in maintaining cellular health and function, including antioxidant defense, detoxification, and cellular signaling. The 5,5′-dithiobis(2-nitrobenzoic acid) (DTNB)-GSH recycling assay was used to measure total GSH (tGSH), which includes the reduced (GSH) and oxidized (GSSG) forms of glutathione. The assay relies on the reaction of GSH with DTNB, producing the yellow-colored 5-thio-2-nitrobenzoic acid (TNB). Thus, the TNB generated is directly proportional to the amount of GSH present in the sample [31].
Thus, the SH-SY5Y cells were seeded onto 6-well plates (25,000 cells/cm^2) following the previously described seeding and differentiation protocol. On the day of the experiment, the cells were exposed to different concentrations of the tested drugs (EC20 and EC50) for 24 h (37 °C, 5% CO2). At the end of the incubation period, the cells were centrifuged (5 min, 250 g, 4 °C). For the analysis of extracellular GSH levels, the supernatants were collected, and proteins precipitated with 30% HClO4 for at least 30 min (4 °C). For the analysis of intracellular GSH levels, after collecting the supernatants, the cells were treated with 5% HClO4 for at least 30 min (4 °C). Subsequently, the acidic samples were collected from the plates and centrifuged (5 min, 16,000× g, 4 °C), and the supernatants were stored until further analysis (−80 °C). To assess protein content, the pellets were resuspended in 1M NaOH, maintained at 4 °C overnight, and stored until further analysis (−20 °C). A Bio-Rad DC™ protein assay kit (Bio-Rad Laboratories, Hercules, CA, USA) was used to analyze protein content, in accordance with the manufacturer’s guidelines.
Before the tGSH quantification, the acidic samples were diluted (1:2) with 5% HClO4, and the diluted samples/standards were neutralized with an ice-cold KHCO3 solution (1:1) and centrifuged (5 min, 16,000× g, 4 °C).
Then, 100 µL of supernatant from each sample/standard was transferred into a 96-well plate and 65 µL of an extemporaneous reagent solution (0.68 mM NADPH and 3.96 mM DTNB prepared in a 7.5 pH phosphate buffer) was added to each well, and the plates were incubated for 15 min at 30 °C. After 15 min, 40 μL of a 10 U/mL glutathione reductase solution was added to each well and the formation of 5-thio-2-nitrobenzoic acid (TNB) was monitored every 10 s for 3 min (kinetic mode) at 415 nm in a multi-well plate reader (PowerWaveX, BioTek Instruments, Winooski, VT, USA).
The GSH levels were standardized to protein content. The results are presented as a percentage relative to the control cells (0 µM). A minimum of 6 independent experiments were conducted, in duplicate.
Glutamate/cysteine ligase (GCL), also recognized as gamma-glutamylcysteine synthetase (γ-GCS), is a key enzyme in the first step of glutathione biosynthesis, as it catalyzes the reaction between glutamate and cysteine to produce γ-glutamylcysteine. […] The SH-SY5Y cells were seeded onto 6-well plates (25,000 cells/cm^2) following the previously described seeding and differentiation protocol. On the day of the experiment, the cells were incubated with BSO (100 µM) for 24 h (37 °C, 5% CO2) and the quantification of GSH intracellular levels was achieved according to the previously described method in Section 2.11.

CCSc1cc(OC)c(CCN)cc1OC.Cl [2C-T-2, 2-(4-(ethylthio)-2,5-dimethoxyphenyl)ethan-1-aminium chloride]
Bottom (baseline, % control) [1]: 1.639 % control | Top (maximal cell death, % control) [1]: 83.85 % control | EC50 [1]: 216 µM | mitochondrial production of ROS (serotonergic B65 cells): increase in the mitochondrial production of ROS | intracellular tGSH levels, % of control cells ([2]; drug at its EC20, 24 h): 87.0% | intracellular tGSH levels, % of control cells ([2]; drug at its EC50, 24 h): 80.0%

CCSc1cc(OC)c(CCNCc2ccccc2OC)cc1OC.Cl [25T2-NBOMe, 2-(4-(ethylthio)-2,5-dimethoxyphenyl)-N-(2-methoxybenzyl)ethan-1-aminium chloride]
Bottom (baseline, % control) [1]: 3.637 % control | Top (maximal cell death, % control) [1]: 81.45 % control | EC50 [1]: 26.5 µM | intracellular tGSH levels, % of control cells ([2]; drug at its EC20, 24 h): 54.4% | intracellular tGSH levels, % of control cells ([2]; drug at its EC50, 24 h): 49.2%

COc1cc(SC(C)C)c(OC)cc1CCNCc1ccccc1OC.Cl [25T4-NBOMe, 2-(4-(isopropylthio)-2,5-dimethoxyphenyl)-N-(2-methoxybenzyl)ethan-1-aminium chloride]
Bottom (baseline, % control) [1]: 2.059 % control | Top (maximal cell death, % control) [1]: 83.51 % control | EC50 [1]: 19.9 µM | intracellular tGSH levels, % of control cells ([2]; drug at its EC20, 24 h): 71.2% | intracellular tGSH levels, % of control cells ([2]; drug at its EC50, 24 h): 60.3%

CCCSc1cc(OC)c(CCN)cc1OC.Cl [2C-T-7, 2-(2,5-dimethoxy-4-(propylthio)phenyl)ethan-1-aminium chloride]
Bottom (baseline, % control) [1]: 1.452 % control | Top (maximal cell death, % control) [1]: 84.63 % control | EC50 [1]: 73.6 µM | mitochondrial production of ROS (serotonergic B65 cells): increase in the mitochondrial production of ROS | intracellular tGSH levels, % of control cells ([2]; drug at its EC20, 24 h): 84.2% | intracellular tGSH levels, % of control cells ([2]; drug at its EC50, 24 h): 82.4%

COc1cc(SC(C)C)c(OC)cc1CCN.Cl [2C-T-4, 2-(4-(isopropylthio)-2,5-dimethoxyphenyl)ethan-1-aminium chloride]
Bottom (baseline, % control) [1]: 0.7855 % control | Top (maximal cell death, % control) [1]: 82.56 % control | EC50 [1]: 110 µM | mitochondrial production of ROS (serotonergic B65 cells): no significant alterations | intracellular tGSH levels, % of control cells ([2]; drug at its EC20, 24 h): 81.4% | intracellular tGSH levels, % of control cells ([2]; drug at its EC50, 24 h): 75.8%

CCCSc1cc(OC)c(CCNCc2ccccc2OC)cc1OC.Cl [25T7-NBOMe, 2-(2,5-dimethoxy-4-(propylthio)phenyl)-N-(2-methoxybenzyl)ethan-1-aminium chloride]
Bottom (baseline, % control) [1]: 3.972 % control | Top (maximal cell death, % control) [1]: 82.95 % control | EC50 [1]: 14.4 µM | intracellular tGSH levels, % of control cells ([2]; drug at its EC20, 24 h): 72.2% | intracellular tGSH levels, % of control cells ([2]; drug at its EC50, 24 h): 52.0%

— publication PMC11204507, “Mechanistic Insights into the Neurotoxicity of 2,5-Dimethoxyphenethylamines (2C) and Corresponding N-(2-methoxybenzyl)phenethylamine (NBOMe) Drugs” (Journal of Xenobiotics, 2024)
